The source of these data is article PMC8556085, “Antimicrobial and Antioxidant Secondary Metabolites from Trifolium baccarinii Chiov. (Fabaceae) and Their Mechanisms of Antibacterial Action” (BioMed Research International, 2021).

One data set concerns Escherichia coli S2(1). The data set can be described thus: Broth microdilution MIC/MMC. In kind it is cell-based. The conditions noted are these: for MIC: 24 h, 37°C, read-out: MIC. On the procedure:
(§1) The antimicrobial activity was performed against five bacterial and two fungal species. The selected microorganisms were the Gram-positive (Staphylococcus aureus ATCC25923, methicillin-resistant Staphylococcus aureus 03 (MRSA03), and methicillin-resistant Staphylococcus aureus 04 (MRSA04)) and Gram-negative (Pseudomonas aeruginosa ATCC27853 and Escherichia coli S2(1)) bacteria and yeast strains of Candida albicans ATCC10231 and Cryptococcus neoformans H99. These microorganisms were taken from our laboratory collection. The fungal and bacterial strains were conserved on Sabouraud Dextrose Agar (SDA, Conda, Madrid, Spain) and nutrient agar (NA, Conda) slants, respectively.
(§2) The antimicrobial activity was investigated by determining the minimum inhibitory concentrations (MICs), minimum bactericidal concentrations (MBC), and minimum fungicidal concentrations (MFCs). MICs of extracts/compounds were monitored using the broth microdilution method. Dimethyl sulfoxide (DMSO, Fisher Chemicals) was used to dissolve the test sample to produce a stock solution that was twofold serially diluted in Mueller-Hinton broth (MHB) for bacteria and Sabouraud Dextrose Broth (SDB) for fungi to obtain a concentration range of 4096 to 0.25 μg/mL. One hundred microliters of each concentration was introduced into a well (96-well microplate) containing 90 μL of SDB or MHB and 10 μL of inoculum (at 1 × 10^6 CFU/mL for bacteria and 1 × 10^5 spores/mL for yeasts) which were added to obtain a final concentration range of 2048 to 0.125 μg/mL. Plates were covered and incubated on the shaker at 37°C, 30°C, and 30°C during 24 h, 48 h, and 72 h for bacteria, Candida albicans, and Cryptococcus neoformans, respectively. The MICs were visually assessed after the incubation period and were considered the lowest sample concentration that inhibits the growth or the visual growth of the organism.
(§3) The positive controls were oxacillin (Sigma-Aldrich, Steinheim, Germany) for bacteria and nystatin (Sigma-Aldrich, Steinheim, Germany) for yeasts, and the negative control was broth with 20 μL of DMSO. The assay was carried out in triplicate.

In data set [1] the test system is Pseudomonas aeruginosa ATCC27853. The data set can be described thus: Broth microdilution MIC/MMC. The data set is classed as cell-based. The conditions noted are these: for MBC / MMC/MIC: Pseudomonas aeruginosa ATCC27853; for MIC: Pseudomonas aeruginosa ATCC27853, 24 h, 37°C, read-out: MIC. On the procedure:
as §1, §2, §3
A general note: In broth dilution the organism is exposed to a series of concentrations in liquid medium.

The test system of data set [2] is Staphylococcus aureus ATCC25923. The data set can be described thus: Broth microdilution MIC/MMC. The data set is classed as cell-based. Particulars: for MBC / MMC/MIC: Staphylococcus aureus ATCC25923; for MIC: Staphylococcus aureus ATCC25923, 24 h, 37°C, read-out: MIC. On the procedure:
as §1, §2, §3

Data set [3] has as its system methicillin-resistant Staphylococcus aureus 03 (MRSA03). The experiment in a line: Broth microdilution MIC/MMC. In kind it is cell-based. Particulars: for MMC/MIC / MBC: MRSA03; for MBC / MIC: Staphylococcus aureus; for MIC: MRSA03, 24 h, 37°C, read-out: MIC. On the procedure:
as §1, §2, §3

In data set [4] the test system is methicillin-resistant Staphylococcus aureus 04 (MRSA04). The experiment in a line: Broth microdilution MIC/MMC. The conditions noted are these: for MMC/MIC / MBC: MRSA04; for MBC / MIC: Staphylococcus aureus; for MIC: MRSA04, 24 h, 37°C, read-out: MIC. In kind it is cell-based. On the procedure:
as §1, §2, §3

Data set [5] deals with tested bacteria and yeasts. The data set can be described thus: Broth microdilution MIC/MMC, summary over all strains. In kind it is cell-based. On the procedure: as §1, §2, §3
The test system of data set [6] is Pseudomonas aeruginosa ATCC27853. The data set can be described thus: Bacteriolytic assay (time-kill kinetic method, OD600). The data set is classed as cell-based. Particulars: Pseudomonas aeruginosa suspension, 2xMIC, after 240 min, compared to the 0 time value. On the procedure:
(§4) (1) Bacteriolytic Assay. […] Full growth of bacterium in MHB was diluted 100 times and incubated at 37°C to produce an OD600 of 0.8 as a starting inoculum. Sample solutions were added to the starting bacterial suspension to give a final concentration of 2xMIC and incubated at 37°C under agitation at 150 rpm. After the incubation period corresponding to 0, 15, 30, 60, 120, and 240 min, 100 μL was pipetted from each tube and the optical density was recorded at 600 nm using the Biobase UV-Vis spectrophotometer. Corresponding dilutions of test samples were used as blanks. Oxacillin was used as a positive control, and the tubes without an extract/compound served as negative controls. All the measurements were done in triplicate and repeated three times.

Data set [7] concerns Staphylococcus aureus ATCC25923. Described as above. Particulars: Staphylococcus aureus ATCC25923 suspension, 2xMIC, after 240 min, compared to the 0 time value. In kind it is cell-based. On the procedure: as §4
Another data set has as its system catalase. The data set can be described thus: Catalase activity in treated bacterial cell lysates. The data set is classed as cell-based. Particulars: Staphylococcus aureus ATCC25923 and MRSA03, MIC and 1/2xMIC, 24 h. On the procedure: (§5) (3) Antioxidant Enzyme Activities. For evaluation of catalase and superoxide dismutase (SOD) activities, Staphylococcus aureus ATCC25923 and MRSA03 (1.5 × 10^8 CFU/mL, 500 μL) cultures from the late exponential growth phase were treated with MIC and 1/2xMIC of the methanol extract (500 μL), compound 5 (500 μL), and oxacillin (500 μL) solutions and incubated at 37°C for 24 h. The suspension was centrifuged at 3000 rpm for 5 min to separate the supernatant. The pellet was washed twice with PBS and resuspended in 500 μL of cell lysate buffer (1 mM EDTA, 10 Mm Tris-HCl, 0.1% Triton-X-100, and 150 mM NaCl) and incubated at 37°C for 1 h. Contents were then centrifuged at 3000 rpm for 5 min, and the supernatant was collected for enzyme activity assays.
Catalase activity. This was assessed by using a kit (Sigma, catalogue no. CAT100) with a cell lysate. Briefly, 750 μL of assay buffer (50 mM) was mixed with 25 μL of 50 mM H2O2 and 10 μL of cell lysate. […] The absorbance was monitored at 520 nm, and the catalase activity was calculated based on the following equation: [Δμ moles (H2O2) × d × 100)/V × t], where Δμ moles (H2O2) is the difference in amount of H2O2 added to the reaction mixture between blank and given samples, d is the dilution of the original sample for catalase reaction, V is the sample volume in catalase reaction, and t is the reaction duration (min).

The subject of data set [8] is superoxide dismutase (SOD). The experiment in a line: Superoxide dismutase (SOD) activity in treated bacterial cell lysates. The data set is classed as cell-based. Particulars: Staphylococcus aureus ATCC25923 and MRSA03, MIC and 1/2xMIC, 24 h. On the procedure: as §5
Superoxide dismutase (SOD) activity. This was determined using a kit (Sigma, catalogue no. 19160) in the cell lysate. […] The reaction mixture was incubated in the dark at 37°C for 20 min, and the absorbance was read at 450 nm on a BioTek Synergy 2 multiplate reader. The SOD activity was calculated based on the following formula: [(ABlank1–ABlank3) − (ASample–ABlank2)/(ABlank1–ABlank3) × 100], where Blank 1 contains ultrapure water, WST solution, and enzyme solution, Blank 2 contains sample solution, WST solution, and dilution buffer, and Blank 3 contains ultrapure water, WST solution, and dilution buffer.

For data set [9], the system named is Candida albicans ATCC10231. The data set can be described thus: Broth microdilution MIC/MMC. The data set is classed as cell-based. On the procedure:
as §1, §2, §3

For data set [10], the system named is Cryptococcus neoformans H99. The experiment in a line: Broth microdilution MIC/MMC. The data set is classed as cell-based. On the procedure:
as §1, §2, §3

Data set [11] is described as follows: DPPH free radical scavenging assay. Particulars: mean ± SD. On the procedure: The free radical scavenging activity of extracts and compounds was evaluated according to the described method. The EC50 (μg/mL), which is the amount of sample necessary to inhibit by 50% the absorbance of free radical DPPH, was calculated. Vitamin C was used as a standard control. All the analyses were carried out in triplicate and repeated three times.

Data set [12] in a line: Gallic acid equivalent antioxidant capacity (GEAC) assay. Particulars: ABTS radical, 420 nm, 240 s; mean ± SD. On the procedure:
The GEAC test was performed as described previously with some slight modifications. The laccase was purified from Sclerotinia sclerotiorum according to the described protocol. 20 μL of laccase (1 mM stock solution), 20 μL of test sample, 10 μL of ABTS (2,2′-azino-bis(3-ethylbenzothiazoline-6-sulfonic acid) (74 mM stock solution), and 950 μL of acetate buffer (pH = 5.0, 100 mM) were added in a quartz cuvette. The concentrations of the samples in the assay mixture were 800, 400, 200, 100, and 10 μg/mL for the extracts and 200, 100, 50, 25, and 12.5 μg/mL for the isolated compounds. The content of the generated ABTS^●+ radical was measured at 420 nm after 240 s reaction time and was converted to gallic acid equivalents by the use of a calibration curve (Pearson's correlation coefficient: r = 0.998) constructed with 0, 4, 10, 14, 28, 56, and 84 μM gallic acid standards rather than Trolox. Experiments were done in triplicate and repeated three times with similar results.

Data set [13] has as its system methicillin-resistant Staphylococcus aureus and methicillin-sensitive S. aureus strains. More on the design: method as in PMID 27284353. The conditions noted are these: MRSA and MSSA strains, previous study; cited from earlier work.
Another data set deals with red blood cells (RBCs). The data set is classed as cell-based, Wistar rats (Rattus norvegicus). On the procedure:
Wistar rats (Rattus norvegicus) aged 10–12 weeks and weighing 220 to 250 g were randomly selected from our colony. Efforts were also made to minimize animal suffering and to reduce the number of animals used in the experiment. Intraperitoneal injection of the mixture of ketamine (50 mg/kg body weight, BW) and xylazine (10 mg/kg BW) was used to anaesthetize the rats in a dose that is commonly used for operation purposes. And subsequently, the unconscious animals were quickly operated on and the whole blood (10 mL) was collected by cardiac puncture into a conical tube containing Ethylenediaminetetraacetic Acid (EDTA) as an anticoagulant. Red blood cells were harvested by centrifugation at room temperature for 10 min at 1,000 × g and were washed three times in PBS buffer^23. The haemolysis assay was evaluated as previously described.

In brackets after ≈: the same amount, converted by molar mass. Marks after values point to notes of the source that are not given here. Some results are limits rather than exact numbers.

Take `Cc1onc(-c2ccccc2)c1C(=O)N[C@@H]1C(=O)N2[C@@H]1SC(C)(C)[C@@H]2C(=O)O` [oxacillin, reference compound]: the MBC (in general, the lowest tested concentration that kills the bacteria rather than only halting them) against Escherichia coli S2(1) was found to be 32 µg/mL (≈ 79.7 µM); in [1], 2 µg/mL (≈ 4.98 µM); in [2], 1 µg/mL (≈ 2.49 µM); in [3], 8 µg/mL (≈ 19.9 µM); in [4] it was 8 µg/mL (≈ 19.9 µM). Also, the MMC/MIC in the data set with Escherichia coli S2(1) came to 2; in [1], 1; in data set [2], 1; in [3], 2; in data set [4], 1. Besides, the MIC (as a rule, the lowest concentration found to suppress growth) with Escherichia coli S2(1) came out at 16 µg/mL (≈ 39.9 µM); in data set [1], 2 µg/mL (≈ 4.98 µM); in data set [2], 1 µg/mL (≈ 2.49 µM); in data set [3], 4 µg/mL (≈ 9.96 µM); in data set [4], 8 µg/mL (≈ 19.9 µM). Further, the “MMC/MIC (microbicidal activities)” value in data set [5] (against all the tested microorganisms) was not above 4. Also, the “decline in cell turbidity” value in data set [6] and in data set [7] was 2% in each case. Moreover, in the data set on catalase, the “catalase activity vs untreated cell lysates” value is “significant concentration-dependent decreases”. In addition, the “SOD activity vs untreated cell lysates” value in data set [8] was “significant concentration-dependent decreases”.
On to `O=c1cc(-c2ccc(O)c(O)c2)oc2cc(O)cc(O)c12` [compound 3, luteolin], for which the MFC in data set [9] (Candida albicans ATCC10231) worked out at 32 µg/mL (≈ 112 µM); in data set [10] (Cryptococcus neoformans H99), 16 µg/mL (≈ 55.9 µM). Moreover, the MMC/MIC in data set [9] (Candida albicans ATCC10231) is reported as 2; in [10] (Cryptococcus neoformans H99), 2; in the data set on Escherichia coli S2(1), 1; in data set [1] it was 2; in data set [2], 2; in data set [3] it was 1. The molecule further gave an MMC/MIC in [4] of 2. Besides, the MIC in data set [9] (Candida albicans ATCC10231, 48 h, 30°C, read-out: MIC) turned out to be 16 µg/mL (≈ 55.9 µM); in data set [10] (Cryptococcus neoformans H99, 72 h, 30°C, read-out: MIC), 8 µg/mL (≈ 27.9 µM); in the data set on Escherichia coli S2(1), 32 µg/mL (≈ 112 µM); in data set [1], 32 µg/mL (≈ 112 µM); in data set [2], 32 µg/mL (≈ 112 µM); in [3], 16 µg/mL (≈ 55.9 µM). The MIC in data set [4] is 32 µg/mL (≈ 112 µM); in data set [5] (read-out: MIC (range over the tested microorganisms)) it was 8 to 32 µg/mL (≈ 27.9 to 112 µM); in data set [13] it was 62.5 µg/mL (≈ 218 µM). The minimum bactericidal concentration (MBC) with Escherichia coli S2(1) is 32 µg/mL (≈ 112 µM); in [1], 64 µg/mL (≈ 224 µM); in data set [2] it was 64 µg/mL (≈ 224 µM); in data set [3], 16 µg/mL (≈ 55.9 µM); in data set [4], 64 µg/mL (≈ 224 µM). Besides, the “antimicrobial activity class of pure compounds by cutoff points” value in data set [5] (against specific microorganism, cutoff points of ref 33) is given as “significant/moderate”. For the same molecule, the “DPPH free radical scavenging activity (EC50)” value in data set [11] is 8.02 ± 1.16^e μg/mL. The “Gallic acid equivalent antioxidant capacity (GEAC)” value in data set [12] is given as 68.30 ± 0.71^f μg/mL.
For the molecule Triton X-100, in the data set on red blood cells (RBCs), the “lysis of RBCs” value is “about 100%”.
